In ChEMBL document CHEMBL5032522, “N-2-(phenylamino) benzamide derivatives as novel anti-glioblastoma agents: Synthesis and biological evaluation” (Eur J Med Chem, 2021):
Activity calls are given as the source filed them. The calls are words filed in the database; no cut-off is given here.

Experiments:
DNA topoisomerase 1 = biological target: T1, DNA topoisomerase 1 (Homo sapiens, UniProt P11387); assay: Inhibition of human topoisomerase I using DNA pBR322 as substrate assessed as DNA relaxation incubated for 45 mins by ethidium bromide staining based agarose gel electrophoresis
T1 sequence (P11387 whole entry): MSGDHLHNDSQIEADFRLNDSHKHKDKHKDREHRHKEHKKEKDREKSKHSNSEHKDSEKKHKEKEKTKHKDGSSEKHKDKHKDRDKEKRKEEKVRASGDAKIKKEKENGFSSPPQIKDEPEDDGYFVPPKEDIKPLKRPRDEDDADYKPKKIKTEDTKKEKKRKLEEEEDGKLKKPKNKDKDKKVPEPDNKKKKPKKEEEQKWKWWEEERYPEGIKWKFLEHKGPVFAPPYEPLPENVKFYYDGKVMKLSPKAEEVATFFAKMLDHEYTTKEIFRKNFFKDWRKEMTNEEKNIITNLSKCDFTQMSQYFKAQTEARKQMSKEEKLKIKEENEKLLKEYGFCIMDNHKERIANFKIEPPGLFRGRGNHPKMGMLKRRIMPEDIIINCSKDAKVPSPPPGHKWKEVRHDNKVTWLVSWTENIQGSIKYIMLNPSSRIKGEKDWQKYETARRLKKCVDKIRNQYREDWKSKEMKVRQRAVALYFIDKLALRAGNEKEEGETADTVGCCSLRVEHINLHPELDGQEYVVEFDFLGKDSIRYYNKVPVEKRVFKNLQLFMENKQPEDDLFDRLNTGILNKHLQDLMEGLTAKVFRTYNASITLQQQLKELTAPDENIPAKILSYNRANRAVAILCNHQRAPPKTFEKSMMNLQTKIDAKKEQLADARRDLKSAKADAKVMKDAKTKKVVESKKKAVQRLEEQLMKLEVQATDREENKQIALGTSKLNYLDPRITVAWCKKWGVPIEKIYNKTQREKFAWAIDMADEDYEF

C6 [1] = assay: Antitumor activity against rat C6 cells inoculated orthotopic Sprague-Dawley rat model assessed as tumor growth inhibition at 100 mg/kg, ip bid administered for 14 days by MRI scanner relative to control; type: functional; conditions: 336 h, time 14 day, read-out: TGI
U-87 MG [2] = assay: Induction of morphological changes in human U-87 MG cells assessed as appearance of rounded and shortened cells at 3.3 uM incubated for 72 hrs by Giemsa staining based light microscopic method; type: functional, cell-based; conditions: U-87MG ATCC
[3] = Drug concentration in Sprague-Dawley rat brain at 100 mg/kg, ip measured 6 hrs post administration by LC-MS analysis; type: ADME, organism-based; conditions: read-out: Ct
[4] = Acute toxicity in Kunming mouse assessed as death at 1000 mg/kg, ip administered as single dose observed every day for 14 days; type: organism-based; conditions: in vivo, 336 h, time 14 day
[5] = Acute toxicity in ip dosed Kunming mouse assessed as lethal dose measured after 14 days; type: organism-based; conditions: in vivo, time 14 day
U-87 MG [6] = assay: Induction of morphological changes in human U-87 MG cells assessed as membrane blebbing at 3.3 uM incubated for 72 hrs by Giemsa staining based light microscopic method; type: functional, cell-based; conditions: U-87MG ATCC
U-87 MG [7] = assay: Induction of morphological changes in human U-87 MG cells assessed as appearance of shrunken cell bodies at 3.3 uM incubated for 72 hrs by Giemsa staining based light microscopic method; type: functional; conditions: U-87MG ATCC
[8] = Acute toxicity in Kunming mouse assessed as death at 750 mg/kg, ip administered as single dose observed every day for 14 days; type: organism-based; conditions: in vivo, 336 h, time 14 day
[9] = biological target: T2, Prostaglandin G/H synthase 2 (Homo sapiens, UniProt P35354); assay: Inhibition of human recombinant COX-2 using arachidonic acid as substrate preincubated 10 mins followed by substrate addition and measured after 2 mins by ELISA
T2 sequence (P35354 whole entry): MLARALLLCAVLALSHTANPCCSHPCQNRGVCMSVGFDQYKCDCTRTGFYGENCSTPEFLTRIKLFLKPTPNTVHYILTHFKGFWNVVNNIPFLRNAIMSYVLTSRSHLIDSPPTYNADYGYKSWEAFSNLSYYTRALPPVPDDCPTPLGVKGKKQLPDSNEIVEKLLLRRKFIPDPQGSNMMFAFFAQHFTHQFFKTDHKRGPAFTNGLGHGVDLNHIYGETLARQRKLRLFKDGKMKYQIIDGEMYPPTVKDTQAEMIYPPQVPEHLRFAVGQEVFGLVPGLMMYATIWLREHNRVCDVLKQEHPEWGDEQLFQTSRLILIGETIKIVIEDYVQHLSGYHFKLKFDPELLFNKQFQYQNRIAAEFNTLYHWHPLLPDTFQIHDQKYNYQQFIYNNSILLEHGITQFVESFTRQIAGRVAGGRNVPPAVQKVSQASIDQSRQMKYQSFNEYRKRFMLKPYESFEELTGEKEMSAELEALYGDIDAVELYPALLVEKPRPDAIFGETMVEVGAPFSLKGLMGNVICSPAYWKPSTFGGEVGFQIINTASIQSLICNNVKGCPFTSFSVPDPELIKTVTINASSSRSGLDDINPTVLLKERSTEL

[10] = Cmax in Sprague-Dawley rat at 100 mg/kg, ip measured up to 24 hrs by LC-MS analysis; type: ADME, organism-based; parameters: route intraperitoneal, dose 100 mg/kg, time <=24; conditions: in vivo
U-87 MG [11] = assay: Antiproliferative activity against human U-87 MG cells assessed as inhibition of cell growth measured up to 72 hrs by CCK-8 assay; type: functional, cell-based; conditions: U-87MG ATCC, time hrs <=72
U-251 [12] = assay: Inhibition of colony formation in human U-251 cells measured after 8 days by crystal violet staining based assay; type: functional, cell-based; conditions: time 8.0 day
C6 [13] = assay: Antiproliferative activity against rat C6 cells assessed as inhibition of cell growth measured after 72 hrs by CCK-8 assay; type: functional, cell-based; conditions: C6, 72 h
U-251 [14] = assay: Induction of morphological changes in human U-251 cells assessed as membrane blebbing at 3.3 uM incubated for 72 hrs by Giemsa staining based light microscopic method; type: functional, cell-based
U-251 [15] = assay: Induction of cell cycle arrest in human U-251 cells assessed as increase in G2 phase accumulation at 10 uM incubated for 72 hrs by propidium iodide/RNase A staining based flow cytometry (reference value: 20.88%); type: functional
U-251 [16] = assay: Induction of cell cycle arrest in human U-251 cells assessed as reduction in G0/G1 phase accumulation at 10 uM incubated for 72 hrs by propidium iodide/RNase A staining based flow cytometry (reference value: 79.12%); type: functional; parameters: scale not given: the % may be the effect or the level left
U-87 MG [17] = assay: Inhibition of colony formation in human U-87 MG cells measured after 8 days by crystal violet staining based assay; type: functional, cell-based; conditions: U-87MG ATCC, time 8.0 day
C6 [18] = assay: Antitumor activity against rat C6 cells inoculated orthotopic Sprague-Dawley rat model assessed as reduction in tumor volume at 100 mg/kg, ip bid administered for 14 days; type: functional, organism-based; conditions: time 14.0 day
U-251 [19] = assay: Antiproliferative activity against human U-251 cells assessed as inhibition of cell growth measured after 72 hrs by CCK-8 assay; type: functional, cell-based; conditions: U-251, 72 h
U-87 MG [20] = assay: Inhibition of cell migration in human U-87 MG cells incubated for 24 hrs by crystal violet staining based light microscopic analysis; type: functional; conditions: U-87MG ATCC
[21] = Acute toxicity in Kunming mouse assessed as death at 500 mg/kg, ip administered as single dose observed every day for 14 days; type: organism-based; conditions: in vivo, 336 h, time 14 day
U-251 [22] = assay: Inhibition of cell migration in human U-251 cells incubated for 24 hrs by crystal violet staining based light microscopic analysis; type: functional

Compound	IC50 (DNA topoisomerase 1)	inhibition in vivo at 100 mg/kg (C6 [1])	Activity (U-87 MG [2])	concentration at 6 h [3]	Activity [4]	LD50 at 336 h [5]	Activity (U-87 MG [6])	Activity (U-87 MG [7])	Activity [8]	IC50 [9]	Cmax [10]	Activity (U-87 MG [11])	inhibition (U-251 [12])	IC50 (C6 [13])	Activity (U-251 [14])	Activity (U-251 [15])	Activity (U-251 [16])	inhibition (U-87 MG [17])	Activity (C6 [18])	IC50 (U-251 [19])	also measured
Cc1c(Cl)cccc1Nc1ccccc1C(=O)Nc1ccc2c(c1)OCO2	47.6 µM	56.4%	Active	1410 ng/mL	Toxic	750 mg/kg	Active	Active	Non-Toxic	45 µM	8870 ng/mL	Dose-Dependent Effect	Dose-Dependent Effect	16.9 µM	Active	74.64%	25.36%	Dose-Dependent Effect	Active	9.91 µM	inhibition (U-87 MG [20]): Dose-Dependent Effect; Activity [21]: Non-Toxic; inhibition (U-251 [22]): Dose-Dependent Effect
COc1ccc(NC(=O)c2ccccc2Nc2cccc(Cl)c2C)cc1	33.6 µM	66.7%	Active	3380 ng/mL	Toxic	300 mg/kg	Active	Active	Non-Toxic	33.6 µM	8370 ng/mL	Dose-Dependent Effect	Dose-Dependent Effect	10.1 µM	Active	73.72%	26.28%	Dose-Dependent Effect	Active	5.36 µM	inhibition (U-87 MG [20]): Dose-Dependent Effect; Activity [21]: Toxic; inhibition (U-251 [22]): Dose-Dependent Effect
